ChEMBL document CHEMBL1909046, “DrugMatrix in vitro pharmacology data”

Tests used:
Endothelin-1 receptor = target: T1, Endothelin-1 receptor (Homo sapiens, UniProt P25101); format: cell membranes, CHO-K1, Membrane; settings: cho-k1; note: in other assays of this panel Not Active means under 50% inhibition at 10 µM
T1 sequence (P25101 whole entry): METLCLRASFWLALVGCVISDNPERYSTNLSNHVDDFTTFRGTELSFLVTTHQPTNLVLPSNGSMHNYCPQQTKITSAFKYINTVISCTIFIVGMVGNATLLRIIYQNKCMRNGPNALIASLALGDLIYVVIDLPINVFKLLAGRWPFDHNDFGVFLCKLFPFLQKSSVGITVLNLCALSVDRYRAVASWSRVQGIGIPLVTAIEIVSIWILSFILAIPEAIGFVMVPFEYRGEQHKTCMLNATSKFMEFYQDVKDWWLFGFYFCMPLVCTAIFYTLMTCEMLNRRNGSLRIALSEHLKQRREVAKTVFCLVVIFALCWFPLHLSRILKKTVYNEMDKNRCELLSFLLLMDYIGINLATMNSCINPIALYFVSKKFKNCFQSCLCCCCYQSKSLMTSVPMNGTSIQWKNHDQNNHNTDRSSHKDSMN

Neutrophil elastase = target: T2, Neutrophil elastase (Homo sapiens, UniProt P08246); format: tissue-based;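 note: inhibition of neutrophil elastase enzyme activity, measured with a p-nitroanilide-linked peptide substrate; in other assays of this panel Not Active means under 50% inhibition at 10 µM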
T2 sequence (P08246 whole entry): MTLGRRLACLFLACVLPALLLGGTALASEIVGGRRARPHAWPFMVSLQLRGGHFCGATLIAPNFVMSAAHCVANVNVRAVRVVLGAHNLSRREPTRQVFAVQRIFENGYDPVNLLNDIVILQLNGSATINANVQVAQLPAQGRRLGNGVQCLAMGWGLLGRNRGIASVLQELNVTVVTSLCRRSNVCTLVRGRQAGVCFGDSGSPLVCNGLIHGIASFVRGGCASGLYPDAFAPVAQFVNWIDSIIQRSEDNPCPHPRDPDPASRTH

Estrogen receptor = target: T3, Estrogen receptor (Homo sapiens, UniProt P03372); settings: sf9; note: in other assays of this panel Not Active means under 50% inhibition at 10 µM
T3 sequence (P03372 whole entry): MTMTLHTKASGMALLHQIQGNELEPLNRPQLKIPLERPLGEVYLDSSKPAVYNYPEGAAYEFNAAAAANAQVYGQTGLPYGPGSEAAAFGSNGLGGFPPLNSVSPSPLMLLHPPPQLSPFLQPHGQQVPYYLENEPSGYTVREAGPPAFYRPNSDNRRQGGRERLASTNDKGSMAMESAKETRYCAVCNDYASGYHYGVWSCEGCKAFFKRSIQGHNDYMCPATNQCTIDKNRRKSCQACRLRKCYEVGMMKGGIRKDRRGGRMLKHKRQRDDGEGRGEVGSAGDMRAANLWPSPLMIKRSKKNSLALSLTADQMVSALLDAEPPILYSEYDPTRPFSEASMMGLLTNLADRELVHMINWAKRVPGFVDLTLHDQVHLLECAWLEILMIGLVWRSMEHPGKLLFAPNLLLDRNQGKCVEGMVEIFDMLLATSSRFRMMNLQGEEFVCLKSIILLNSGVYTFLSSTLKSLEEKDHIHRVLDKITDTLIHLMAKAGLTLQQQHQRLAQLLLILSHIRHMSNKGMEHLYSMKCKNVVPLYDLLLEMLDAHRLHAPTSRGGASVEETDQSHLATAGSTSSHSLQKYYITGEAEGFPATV

Melanocortin receptor 4 = Melanocortin receptor 4 (Homo sapiens, UniProt P32245); format: cell membranes, Membrane; settings: hek293; note: in other assays of this panel Not Active means under 50% inhibition at 10 µM
Nitric oxide synthase 1 = Nitric oxide synthase 1 (Rattus norvegicus, UniProt P29476); format: tissue-based, Cerebellum; note: in other assays of this panel Not Active means under 50% inhibition at 10 µM
Cathepsin G = target: T4, Cathepsin G (Homo sapiens, UniProt P08311); format: tissue-based; settings: neutrophil
T4 sequence (P08311 whole entry): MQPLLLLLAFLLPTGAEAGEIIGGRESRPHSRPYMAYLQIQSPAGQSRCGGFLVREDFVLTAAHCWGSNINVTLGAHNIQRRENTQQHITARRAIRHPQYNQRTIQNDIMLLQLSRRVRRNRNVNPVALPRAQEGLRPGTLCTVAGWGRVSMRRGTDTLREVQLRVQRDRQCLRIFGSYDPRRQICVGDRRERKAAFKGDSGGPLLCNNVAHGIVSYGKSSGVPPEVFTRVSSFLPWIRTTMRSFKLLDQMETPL

[1] = DRUGMATRIX: Glutamate, Kainate radioligand binding (ligand: [3H] Kainic acid); format: cell membranes, Rattus norvegicus, Wistar, Brain, Membrane; settings: Not Active = under 50% inhibition at 10 µM
[2] = target: Tyrosine-protein kinase Fyn (Homo sapiens, UniProt P06241); experiment: biochemical; format: cell-based, Insect cells; settings: insect cells
Leukotriene C4 synthase = target: T5, Leukotriene C4 synthase (Cavia porcellus, UniProt A6XA80); format: tissue-based, Lung
T5 sequence (A6XA80 whole entry): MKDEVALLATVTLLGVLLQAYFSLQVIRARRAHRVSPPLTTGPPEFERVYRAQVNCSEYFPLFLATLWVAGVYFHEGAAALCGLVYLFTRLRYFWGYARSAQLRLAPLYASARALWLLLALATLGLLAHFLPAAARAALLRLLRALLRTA

Chain of Melanocortin receptor 4 (P32245 whole entry): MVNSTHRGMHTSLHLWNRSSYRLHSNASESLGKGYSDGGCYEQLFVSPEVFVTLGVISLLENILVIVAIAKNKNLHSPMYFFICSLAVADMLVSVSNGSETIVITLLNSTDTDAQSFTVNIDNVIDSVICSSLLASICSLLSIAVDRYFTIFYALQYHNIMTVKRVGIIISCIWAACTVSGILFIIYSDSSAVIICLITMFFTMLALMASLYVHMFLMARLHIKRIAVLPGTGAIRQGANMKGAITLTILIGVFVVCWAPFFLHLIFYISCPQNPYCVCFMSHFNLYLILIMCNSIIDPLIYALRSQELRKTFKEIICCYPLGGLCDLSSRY
Chain of Nitric oxide synthase 1 (P29476 whole entry): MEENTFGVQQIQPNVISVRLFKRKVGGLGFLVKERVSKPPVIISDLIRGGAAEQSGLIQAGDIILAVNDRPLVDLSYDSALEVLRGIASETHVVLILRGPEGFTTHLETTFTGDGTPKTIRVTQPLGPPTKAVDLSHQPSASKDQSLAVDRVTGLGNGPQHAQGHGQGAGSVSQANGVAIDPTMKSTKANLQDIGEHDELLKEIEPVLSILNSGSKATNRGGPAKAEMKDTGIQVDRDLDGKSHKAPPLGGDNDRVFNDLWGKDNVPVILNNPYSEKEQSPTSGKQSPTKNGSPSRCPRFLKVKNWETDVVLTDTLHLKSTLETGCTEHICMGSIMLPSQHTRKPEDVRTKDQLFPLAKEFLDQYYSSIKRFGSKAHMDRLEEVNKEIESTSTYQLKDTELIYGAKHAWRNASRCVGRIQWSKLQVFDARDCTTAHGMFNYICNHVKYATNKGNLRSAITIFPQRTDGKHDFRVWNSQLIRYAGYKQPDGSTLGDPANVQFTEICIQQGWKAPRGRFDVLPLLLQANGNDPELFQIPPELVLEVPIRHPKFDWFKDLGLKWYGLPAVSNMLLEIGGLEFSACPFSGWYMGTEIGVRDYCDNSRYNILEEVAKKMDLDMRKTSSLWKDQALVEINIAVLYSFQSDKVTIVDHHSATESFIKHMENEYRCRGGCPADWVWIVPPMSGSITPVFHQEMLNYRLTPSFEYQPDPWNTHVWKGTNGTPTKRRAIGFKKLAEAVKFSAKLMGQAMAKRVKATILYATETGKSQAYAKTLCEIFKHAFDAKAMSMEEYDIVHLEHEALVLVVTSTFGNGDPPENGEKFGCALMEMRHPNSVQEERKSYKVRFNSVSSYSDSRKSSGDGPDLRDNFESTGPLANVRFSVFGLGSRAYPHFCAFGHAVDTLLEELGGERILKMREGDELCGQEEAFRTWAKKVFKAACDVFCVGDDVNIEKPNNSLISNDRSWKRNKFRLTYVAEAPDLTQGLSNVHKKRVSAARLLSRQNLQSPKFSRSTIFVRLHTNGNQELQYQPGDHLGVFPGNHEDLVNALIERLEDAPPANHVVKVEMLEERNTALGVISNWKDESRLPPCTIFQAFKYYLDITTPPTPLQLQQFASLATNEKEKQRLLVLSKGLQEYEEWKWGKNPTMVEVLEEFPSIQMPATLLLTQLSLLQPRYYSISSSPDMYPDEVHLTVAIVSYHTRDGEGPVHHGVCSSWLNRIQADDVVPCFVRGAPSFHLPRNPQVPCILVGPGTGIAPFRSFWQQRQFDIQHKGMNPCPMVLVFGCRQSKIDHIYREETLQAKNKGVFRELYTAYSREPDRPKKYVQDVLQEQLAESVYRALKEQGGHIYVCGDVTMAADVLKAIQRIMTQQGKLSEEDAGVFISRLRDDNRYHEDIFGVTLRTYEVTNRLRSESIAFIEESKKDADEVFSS
Chain of Tyrosine-protein kinase Fyn (P06241 whole entry): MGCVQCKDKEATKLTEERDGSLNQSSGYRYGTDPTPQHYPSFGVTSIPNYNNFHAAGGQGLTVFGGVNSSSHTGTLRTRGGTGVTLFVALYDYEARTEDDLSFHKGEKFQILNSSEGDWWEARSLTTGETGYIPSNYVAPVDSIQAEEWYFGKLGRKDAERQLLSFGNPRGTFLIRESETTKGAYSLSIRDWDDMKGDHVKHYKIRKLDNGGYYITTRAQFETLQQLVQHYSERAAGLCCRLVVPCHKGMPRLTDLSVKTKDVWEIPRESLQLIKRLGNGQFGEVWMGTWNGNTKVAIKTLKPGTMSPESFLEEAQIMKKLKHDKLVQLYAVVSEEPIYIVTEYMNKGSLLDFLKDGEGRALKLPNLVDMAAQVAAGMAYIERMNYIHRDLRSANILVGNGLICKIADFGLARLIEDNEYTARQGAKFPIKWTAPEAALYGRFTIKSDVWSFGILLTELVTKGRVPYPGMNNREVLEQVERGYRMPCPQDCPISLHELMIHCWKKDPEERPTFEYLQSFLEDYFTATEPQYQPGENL

CC[C@H]1OC(=O)[C@H](C)[C@@H](O[C@H]2C[C@@](C)(OC)[C@@H](O)[C@H](C)O2)[C@H](C)[C@@H](O[C@@H]2O[C@H](C)C[C@H](N(C)C)[C@H]2O)[C@](C)(O)C[C@@H](C)CN(C)[C@H](C)[C@@H](O)[C@]1(C)O [AZITHROMYCIN]
Not Active: IC50 (Endothelin-1 receptor) | IC50 (Neutrophil elastase) | IC50 (Estrogen receptor) | IC50 (Melanocortin receptor 4) | IC50 (Nitric oxide synthase 1) | IC50 (Cathepsin G) | IC50 [1] | Ki [1] | IC50 [2] | IC50 (Leukotriene C4 synthase)

CC(=O)OCC(CCn1cnc2cnc(N)nc21)COC(C)=O [FAMCICLOVIR]
Not Active: IC50 (Endothelin-1 receptor) | IC50 (Neutrophil elastase) | IC50 (Estrogen receptor) | IC50 (Melanocortin receptor 4) | IC50 (Nitric oxide synthase 1) | IC50 (Cathepsin G) | IC50 [1] | Ki [1] | IC50 [2] | IC50 (Leukotriene C4 synthase)

C/C=C\c1ccc(O)c(OC)c1 [ISOEUGENOL]
Not Active: IC50 (Endothelin-1 receptor) | IC50 (Neutrophil elastase) | IC50 (Estrogen receptor) | IC50 (Melanocortin receptor 4) | IC50 (Nitric oxide synthase 1) | IC50 (Cathepsin G) | IC50 [1] | Ki [1] | IC50 [2] | IC50 (Leukotriene C4 synthase)

O=C(c1ccccc1Cl)N1CCC(Cc2ccccc2)CC1
Not Active: IC50 (Endothelin-1 receptor) | IC50 (Neutrophil elastase) | IC50 (Estrogen receptor) | IC50 (Melanocortin receptor 4) | IC50 (Nitric oxide synthase 1) | IC50 (Cathepsin G) | IC50 [1] | Ki [1] | IC50 [2] | IC50 (Leukotriene C4 synthase)

Cc1c(F)c(N2CCNC(C)C2)cc2c1c(=O)c(C(=O)O)cn2C1CC1 (stereo unspecified) [GREPAFLOXACIN]
Not Active: IC50 (Endothelin-1 receptor) | IC50 (Neutrophil elastase) | IC50 (Estrogen receptor) | IC50 (Melanocortin receptor 4) | IC50 (Nitric oxide synthase 1) | IC50 (Cathepsin G) | IC50 [1] | Ki [1] | IC50 [2] | IC50 (Leukotriene C4 synthase)

CC(C(=O)O)c1ccc(-c2ccccc2)c(F)c1 (stereo unspecified) [FLURBIPROFEN]
Not Active: IC50 (Endothelin-1 receptor) | IC50 (Neutrophil elastase) | IC50 (Estrogen receptor) | IC50 (Melanocortin receptor 4) | IC50 (Nitric oxide synthase 1) | IC50 (Cathepsin G) | IC50 [1] | Ki [1] | IC50 [2] | IC50 (Leukotriene C4 synthase)

COC(=O)c1ccccc1O [METHYL SALICYLATE]
Not Active: IC50 (Endothelin-1 receptor) | IC50 (Neutrophil elastase) | IC50 (Estrogen receptor) | IC50 (Melanocortin receptor 4) | IC50 (Nitric oxide synthase 1) | IC50 (Cathepsin G) | IC50 [1] | Ki [1] | IC50 [2] | IC50 (Leukotriene C4 synthase)

CC[C@H](C)C(=O)O[C@H]1C[C@@H](C)C=C2C=C[C@H](C)[C@H](CC[C@@H]3C[C@@H](O)CC(=O)O3)[C@H]21 [LOVASTATIN]
Not Active: IC50 (Endothelin-1 receptor) | IC50 (Neutrophil elastase) | IC50 (Estrogen receptor) | IC50 (Melanocortin receptor 4) | IC50 (Nitric oxide synthase 1) | IC50 (Cathepsin G) | IC50 [1] | Ki [1] | IC50 [2] | IC50 (Leukotriene C4 synthase)

COBALT(II) ACETYLACETONATE
Not Active: IC50 (Endothelin-1 receptor) | Ki (Endothelin-1 receptor) | IC50 (Neutrophil elastase) | Ki (Neutrophil elastase) | IC50 (Estrogen receptor) | Ki (Estrogen receptor) | IC50 (Melanocortin receptor 4) | Ki (Melanocortin receptor 4) | IC50 (Nitric oxide synthase 1) | Ki (Nitric oxide synthase 1) | IC50 (Cathepsin G) | Ki (Cathepsin G) | IC50 [1] | Ki [1] | IC50 [2] | Ki [2] | IC50 (Leukotriene C4 synthase) | Ki (Leukotriene C4 synthase)

INSULIN HUMAN
Not Active: IC50 (Endothelin-1 receptor) | Ki (Endothelin-1 receptor) | IC50 (Neutrophil elastase) | Ki (Neutrophil elastase) | IC50 (Estrogen receptor) | Ki (Estrogen receptor) | IC50 (Melanocortin receptor 4) | Ki (Melanocortin receptor 4) | IC50 (Nitric oxide synthase 1) | Ki (Nitric oxide synthase 1) | IC50 (Cathepsin G) | Ki (Cathepsin G) | IC50 [1] | Ki [1] | IC50 [2] | Ki [2] | IC50 (Leukotriene C4 synthase) | Ki (Leukotriene C4 synthase)

O=C(O)c1cc(=O)c2c(OCC(O)COc3cccc4oc(C(=O)O)cc(=O)c34)cccc2o1 [CROMOLYN]
Not Active: IC50 (Endothelin-1 receptor) | IC50 (Neutrophil elastase) | IC50 (Estrogen receptor) | IC50 (Melanocortin receptor 4) | IC50 (Nitric oxide synthase 1) | IC50 (Cathepsin G) | IC50 [1] | Ki [1] | IC50 [2] | IC50 (Leukotriene C4 synthase)

Cc1cccc(Nc2cc(Cl)nc(SCC(=O)O)n2)c1C [PIRINIXIC ACID]
Not Active: IC50 (Endothelin-1 receptor) | IC50 (Neutrophil elastase) | IC50 (Estrogen receptor) | IC50 (Melanocortin receptor 4) | IC50 (Nitric oxide synthase 1) | IC50 (Cathepsin G) | IC50 [1] | Ki [1] | IC50 [2] | IC50 (Leukotriene C4 synthase)

CC[C@H]1OC(=O)[C@H](C)[C@@H](O[C@H]2C[C@@](C)(OC)[C@@H](O)[C@H](C)O2)[C@H](C)[C@@H](O[C@@H]2O[C@H](C)C[C@H](N(C)C)[C@H]2O)[C@](C)(OC)C[C@@H](C)C(=O)[C@H](C)[C@@H](O)[C@]1(C)O [CLARITHROMYCIN]
Not Active: IC50 (Endothelin-1 receptor) | IC50 (Neutrophil elastase) | IC50 (Estrogen receptor) | IC50 (Melanocortin receptor 4) | IC50 (Nitric oxide synthase 1) | IC50 (Cathepsin G) | IC50 [1] | Ki [1] | IC50 [2] | IC50 (Leukotriene C4 synthase)

CCc1oc2ccccc2c1C(=O)c1cc(Br)c(O)c(Br)c1 [BENZBROMARONE]
Not Active: IC50 (Endothelin-1 receptor) | IC50 (Neutrophil elastase) | IC50 (Estrogen receptor) | IC50 (Melanocortin receptor 4) | IC50 (Nitric oxide synthase 1) | IC50 (Cathepsin G) | IC50 [1] | Ki [1] | IC50 [2] | IC50 (Leukotriene C4 synthase)

CC(C)(Oc1ccc(C2CC2(Cl)Cl)cc1)C(=O)O (stereo unspecified) [CIPROFIBRATE]
Not Active: IC50 (Endothelin-1 receptor) | IC50 (Neutrophil elastase) | IC50 (Estrogen receptor) | IC50 (Melanocortin receptor 4) | IC50 (Nitric oxide synthase 1) | IC50 (Cathepsin G) | IC50 [1] | Ki [1] | IC50 [2] | IC50 (Leukotriene C4 synthase)

CO[C@H]1[C@@H](O)[C@H](N)[C@@H](O[C@H]2O[C@H]([C@H](C)N)CC[C@H]2N)[C@H](O)[C@@H]1N(C)C(=O)CN [ASTROMICIN]
Not Active: IC50 (Endothelin-1 receptor) | IC50 (Neutrophil elastase) | IC50 (Estrogen receptor) | IC50 (Melanocortin receptor 4) | IC50 (Nitric oxide synthase 1) | IC50 (Cathepsin G) | IC50 [1] | Ki [1] | IC50 [2] | IC50 (Leukotriene C4 synthase)

Clc1cc2c(cc1Cl)Oc1cc(Cl)c(Cl)cc1O2 [2,3,7,8-TETRACHLORODIBENZO-P-DIOXIN]
Not Active: IC50 (Endothelin-1 receptor) | IC50 (Neutrophil elastase) | IC50 (Estrogen receptor) | IC50 (Melanocortin receptor 4) | IC50 (Nitric oxide synthase 1) | IC50 (Cathepsin G) | IC50 [1] | Ki [1] | IC50 [2] | IC50 (Leukotriene C4 synthase)

N=C(N)N/N=C/c1c(Cl)cccc1Cl [GUANABENZ]
Not Active: IC50 (Endothelin-1 receptor) | IC50 (Neutrophil elastase) | IC50 (Estrogen receptor) | IC50 (Melanocortin receptor 4) | IC50 (Nitric oxide synthase 1) | IC50 (Cathepsin G) | IC50 [1] | Ki [1] | IC50 [2] | IC50 (Leukotriene C4 synthase)

CC(C(=O)O)c1ccc(CC2CCCC2=O)cc1 (stereo unspecified) [LOXOPROFEN]
Not Active: IC50 (Endothelin-1 receptor) | IC50 (Neutrophil elastase) | IC50 (Estrogen receptor) | IC50 (Melanocortin receptor 4) | IC50 (Nitric oxide synthase 1) | IC50 (Cathepsin G) | IC50 [1] | Ki [1] | IC50 [2] | IC50 (Leukotriene C4 synthase)
